Activity calls are given as the source filed them.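 The calls were made as follows: active = fitted half-maximal concentration for changing reporter fluorescence at or below a set limit; inactive = the rest.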
Target: Citrate synthase, peroxisomal (Saccharomyces cerevisiae (strain ATCC 204508 / S288c)) (UniProt P08679)
Experiment: CIT2-GFP expression modulators in yeast, dose response, flow cytometry, MLPCN hits (AID 2744)
Conditions: S. cerevisiae CIT2-GFP strain, 3 h; for GFP fluorescence, higher = induction: at 33 µM (top of the series); for EC50: flow cytometry fluorescence

Citrate synthase, peroxisomal (Saccharomyces cerevisiae (strain ATCC 204508 / S288c)), sequence (P08679 whole entry, looked up): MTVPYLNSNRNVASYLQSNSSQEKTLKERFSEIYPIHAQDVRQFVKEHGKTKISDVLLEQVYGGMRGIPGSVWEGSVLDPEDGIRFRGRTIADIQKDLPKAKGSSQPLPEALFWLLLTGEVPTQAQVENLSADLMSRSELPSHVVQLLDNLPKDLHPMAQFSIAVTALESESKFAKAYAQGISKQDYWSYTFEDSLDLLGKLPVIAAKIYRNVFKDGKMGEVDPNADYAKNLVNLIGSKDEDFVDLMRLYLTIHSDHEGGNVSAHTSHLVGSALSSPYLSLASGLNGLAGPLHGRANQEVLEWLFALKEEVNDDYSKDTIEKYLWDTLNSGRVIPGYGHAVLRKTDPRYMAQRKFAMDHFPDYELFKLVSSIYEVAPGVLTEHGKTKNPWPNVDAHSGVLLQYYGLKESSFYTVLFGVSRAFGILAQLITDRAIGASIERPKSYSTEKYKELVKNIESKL

SMILES | GFP fluorescence, higher = induction | EC50 [µM]
Cc1cccc(/C=C/C(=O)c2ccc([N+](=O)[O-])o2)c1 | inactive | –
CC(Oc1ccc2ccccc2c1)C(=O)NNC(=S)NC(=O)c1ccco1 (stereo not drawn) | inactive | –
Cc1c(C)c2ccc(Oc3ccc([N+](=O)[O-])cc3C(F)(F)F)c(C)c2oc1=O | inactive | –
O=C(c1ccc(Cl)c([N+](=O)[O-])c1)N1CCN(c2ccccc2)CC1 | inactive | –
CCCc1cc(=O)oc2cc(C)cc(OCC(=O)NC3CC3)c12 | inactive | –
CC1=CC(=O)C(C(C)C)=C/C1=N/OS(=O)(=O)c1ccccc1 | inactive | –
Cc1ccc(S(=O)(=O)c2ccc([N+](=O)[O-])cn2)cc1 | inactive | –
Cc1ccc(S(=O)(=O)N2CCCC2C(=O)NCc2ccncc2)cc1 (stereo not drawn) | inactive | –
CC(=O)Oc1oc(-c2ccccc2)nc1C=Nc1ccccc1 | inactive | –
N/C(=N\OC(=O)c1cccc(Br)c1)c1ccccc1 | inactive | –
CN(C)c1ccc(/C=C/c2cc[n+](C)cc2)cc1 | inactive | –
Cc1ccc(C(CC(=O)O)NC(=O)c2ccc(S(=O)(=O)N3CC(C)OC(C)C3)cc2)cc1 (stereo not drawn) | inactive | –
COc1ccccc1OCCCc1c(C)n[nH]c1C | inactive | –
Cc1ccnc(N2C(=O)c3cccc4c([N+](=O)[O-])ccc(c34)C2=O)c1 | inactive | –
CC(=O)SC(C[N+](=O)[O-])c1cn(C(C)=O)c2ccccc12 (stereo not drawn) | inactive | –
O=C(OCn1ncc(Br)c(Br)c1=O)c1c(F)cccc1F | inactive | –
COc1ccc(C(=O)NC(=S)NNC(=O)CCc2ccccc2)cc1 | inactive | –
O=C1Nc2ccc(Br)cc2/C1=C/C(=O)c1ccc2c(c1)OCO2 | inactive | –
O=C(/C=C/c1ccc(Cl)c([N+](=O)[O-])c1)c1cccnc1 | inactive | –
O=C1C(=O)c2ccccc2-c2ccccc21 | inactive | –
CC(=O)n1cc(C(C[N+](=O)[O-])SCCN)c2ccccc21 (stereo not drawn) | inactive | –
O=C(Nc1ccc(Cl)cc1Cl)c1cccc(N2C(=O)C=CC2=O)c1 | inactive | –
O=C1NC(=O)C(=Cc2ccc(-c3ccc(Cl)cc3)o2)C(=O)N1 | inactive | –
Cc1nn2c(-c3ccncc3)nnc2c2ccccc12 | inactive | –

SMILES | GFP fluorescence, higher = induction | EC50 [µM]
Cc1cccnc1Nc1nc(-c2ccccn2)cs1 | inactive | –
CC(OC(=O)c1ccco1)C(=O)Nc1nc(-c2ccccc2)cs1 (stereo not drawn) | inactive | –
Cc1[nH][nH]c(=O)c1C(c1ccc(-c2ccc(Cl)cc2)o1)c1c(C)[nH][nH]c1=O | inactive | –
Cc1cccc(Nc2nc(-c3ccccn3)cs2)n1 | inactive | –
Cc1cc(Br)c2c(c1)/C(=C/C(=O)c1cccs1)C(=O)N2 | inactive | –
CC1(c2ccccc2)ON(c2ccccc2C(F)(F)F)C1=O (stereo not drawn) | inactive | –
O=C1Nc2ccccc2/C1=C\C(=O)c1ccccc1 | inactive | –
COc1cc(/C=C2\C(=O)ON=C2c2ccc(Cl)cc2)ccc1O | inactive | –
O=c1[nH]c(-c2ccccn2)nc(C(F)(F)F)c1Br | inactive | –
CCN(CC)C(=O)Oc1ccnc2cc(Cl)ccc12 | inactive | –
O=C(COc1ccccc1)N1CCN(c2ncnc3c2cnn3-c2ccccc2)CC1 | inactive | –
O=[N+]([O-])c1ccc(-c2cn3nc(-c4ccccc4)c(-c4ccccc4)nc3n2)cc1 | inactive | –
CN(C)/C=C/C(=O)c1ccc(-c2ccc(Cl)cc2Cl)o1 | inactive | –
C#CCOCCOCCOCCNc1nc(N2CCN(C(=O)CCCCCCCCCCNC(=O)[C@H](CCCCN)n3cc(CCO)nn3)CC2)nc(N2CCN(C(=O)CCCCCCCCCCNC(=O)[C@H](CCCN=C(N)N)n3cc(C[C@@H](C)CC)nn3)CC2)n1 | inactive | –
CC(Oc1ccc(Cl)cc1)C(=O)NNC(=S)NC(=O)c1ccco1 (stereo not drawn) | inactive | –
O=C(/C=C/c1cc(Br)ccc1O)c1ccco1 | inactive | –
CCCCc1ccc(NC(=O)CC(C)=O)cc1 | inactive | –
O=C(Oc1c(Cl)cc(Cl)c2cccnc12)c1cccs1 | inactive | –
O=C(C#Cc1ccccc1)c1ccco1 | inactive | –
Cc1ccc(C(=O)Oc2oc(-c3ccccc3)nc2C=Nc2ccc(N(C)C)cc2)cc1 | inactive | –
O=[N+]([O-])c1cnc(Sc2ccncn2)s1 | inactive | –
O=C1ON=C(c2ccccc2)/C1=C/c1ccc(-c2ccccc2[N+](=O)[O-])o1 | inactive | –
COc1ccc(C2=CC(=O)N(Nc3ccccc3)C2=O)cc1 | inactive | –
C#CCOCCOCCOCCNc1nc(N2CCN(C(=O)CCCCCCCCCCNC(=O)[C@H](CCCCN)n3cc(CCO)nn3)CC2)nc(N2CCN(C(=O)CCCCCCCCCCNC(=O)[C@H](CCCCN)n3cc(C[C@@H](C)CC)nn3)CC2)n1 | inactive | –

SMILES | GFP fluorescence, higher = induction | EC50 [µM]
CCC(=O)Oc1oc(-c2ccccc2)nc1C=Nc1ccc(C)cc1 | inactive | –
CS(=O)(=O)c1sc(C#N)c2c1C(=O)CC(c1ccccc1)C2 (stereo not drawn) | inactive | –
CC1(C)OC(c2ccccc2)=C/C(=C/C=C2C(=O)NC(=S)NC2=O)O1 | inactive | –
CCc1sc(C(=O)Nc2nc(-c3ccccn3)cs2)cc1C | inactive | –
O=C(c1ccccc1)c1ccccc1N1C(=O)C=CC1=O | inactive | –
Cn1c(=O)c(C(=O)NNC(=O)c2ccc(Br)cc2)c(O)c2ccccc21 | inactive | –
CCn1c(/C=C/c2ccc([N+](=O)[O-])o2)nc2ccccc2c1=O | inactive | –
O=C1C(Cl)=C(NCCc2ccccc2)C(=O)N1CCc1ccccc1 | inactive | –
O=C(Oc1ccnc2cc(Cl)ccc12)N1CCCCCC1 | inactive | –
CCN1/C(=C/C=C/c2sc3ccccc3[n+]2CC)Sc2ccccc21 | inactive | –
COc1cc(NC(=O)c2ccc(C)cc2)ccc1NC(=O)c1cc2ccccc2o1 | inactive | –
COc1ccc2c(c1)c1nnc(SC)nc1n2C | inactive | –
CCCCC1OC23CCCCC2C(C#N)(C(=N)O3)C1(C#N)C#N (stereo not drawn) | inactive | –
COc1ccc(N2CCN(C(=O)c3ccccc3)CC2)c([N+](=O)[O-])c1 | inactive | –
O=C(c1ccc(Cl)cc1)N1CCN(c2cccc3[nH]ccc23)CC1 | inactive | –
CN(Cc1cnc2nc(N)nc(N)c2n1)c1ccc(C(=O)N[C@@H](CCC(=O)O)C(=O)O)cc1 | inactive | –
COc1ccc(NC(=O)/C(C#N)=C/c2ncc([N+](=O)[O-])n2C)c(OC)c1 | inactive | –
O=C1CC(c2ccccc2)=NN1c1nc(-c2ccccc2)cs1 | inactive | –
COc1cccc(N=Nc2ccc(O)c3ncccc23)c1 | inactive | –
Cc1ccccc1N1C(=O)C(Cl)=C(N2CCN(c3ccccc3)CC2)C1=O | inactive | –
CC1(C(=O)NC(=S)NNC(=O)c2ccncc2)CCCCC1 | inactive | –
CCCCS(=O)(=O)/C=C\C=C/S(=O)(=O)CCCC | inactive | –
COc1ccc(N2CCN(C(=O)c3ccc(Br)cc3)CC2)c([N+](=O)[O-])c1 | inactive | –
CCOC(=O)CSC1=NC(=O)/C(=C\c2ccc(Cl)cc2)S1 | inactive | –

SMILES | GFP fluorescence, higher = induction | EC50 [µM]
Cc1ccc(S(=O)(=O)Cc2cc(F)c([N+](=O)[O-])cc2[N+](=O)[O-])cc1 | inactive | –
COc1ccc(N=Nc2ccc(O)c3ncccc23)cc1 | inactive | –
N/C(=N\OC(=O)c1cc(Br)ccc1Cl)c1ccccn1 | – | 4.11
CC(C)[C@]1(c2ccc(Cl)cc2)ON(c2ccccc2C(F)(F)F)C1=O | inactive | –
COc1ccc(/C=C2/C(=O)ON=C2c2ccccc2)cc1OC | inactive | –
CC(C)[C@@]1(c2ccc(Cl)cc2)ON(c2ccccc2C(F)(F)F)C1=O | inactive | –
CCCOc1ccc(C(=O)NNC(=S)NC(=O)CC)cc1 | – | 3.1
Cc1cc(C(=O)Nc2nc(-c3ccccn3)cs2)ccc1[N+](=O)[O-] | inactive | –
CCN(CC)c1ccc2cc(-c3nc4ccccc4[nH]3)c(=O)oc2c1 | inactive | –
CSC1=NS(=O)(=O)c2c(C)nn(C)c2S1 | inactive | –
O=C1c2cccc3c([N+](=O)[O-])ccc(c23)C(=O)N1c1ccccn1 | inactive | –
COc1ccc(N2C(=O)C(Cl)=C(Oc3cccc(OC)c3)C2=O)cc1 | inactive | –
COc1cccc(/C=N/Nc2ccc([N+](=O)[O-])cn2)c1O | inactive | –
CC1(C)C[C@H]2C=C(C=O)[C@]3(C=O)C[C@]3(C)[C@H]2C1 | – | 1.41
COc1ccccc1C(=O)NNC(=S)NC(=O)c1cccs1 | inactive | –
Oc1cc(-c2ccc(N3CCCCC3)nc2)cc2cccnc12 | inactive | –
Nc1ccccc1SC(C[N+](=O)[O-])c1ccccc1 (stereo not drawn) | inactive | –
COc1cc(/C=C/[N+](=O)[O-])ccc1O | inactive | –
Cc1ccc(C2=NN(S(C)(=O)=O)C(c3ccc4c(c3)OCO4)C2)cc1 (stereo not drawn) | inactive | –
Cc1nc2ccc(NC(=O)c3oc4ccc(F)cc4c3C)cc2s1 | inactive | –
N/C(Cc1ccc(Cl)c(Cl)c1)=N\OC(=O)c1cccs1 | – | 10.3

From PubChem BioAssay AID2744 (NMMLSC, 2010)
